According to paper PMC3892053, “Pharmacokinetic/pharmacodynamic modeling for the determination of a cimicoxib dosing regimen in the dog” (BMC Veterinary Research, 2013):
Where two headings read alike, the source gives them in different places.

What was measured:
[1] = Plasma pharmacokinetics after single intravenous administration in beagle dogs; format: in vivo, dog; conditions: mean ± SD; for HL (plasma half-life): IV 2 mg/kg; for AUC / clearance / half-life / Vd: beagle, dog, plasma, iv, 2 mg/kg; for clearance: read-out: CL (plasma clearance) (converted); for half-life: read-out: HL (plasma half-life) (converted); for Vd: read-out: V (volume of distribution)
Experimental: To verify this hypothesis, a PK investigation of cimicoxib following IV administration (bolus, 2 mg/kg) was performed on the 12 dogs at least 2 months after the completion of the PK/PD study. Blood samples were obtained from the jugular vein by direct puncture at time 0 (control just before the IV administration) and then 2, 15, 30, 60, 90 min. and 2, 3, 4, 6, 9, 12, 24, 30 and 48 hours after the test article administration.
Plasma samples were analyzed by a High Performance Liquid Chromatography (HPLC) method using ultraviolet (UV) detection. Briefly, an internal standard (UR-8877) and cimicoxib (UR-8880) were extracted from plasma by a solid liquid (methanol) extraction process using HLB Oasis cartridges (Waters). The extraction yield was about 90%. The HPLC apparatus consists of a pump system equipped with an automatic injector and an UV detector (242 nm). […] The mobile phase was a mixture of 0.65 L of ultra-pure water and 0.35 L of acetonitrile which was delivered at a flow rate of 1 mL per min. Under these conditions, cimicoxib (UR-8880) and the internal standard (UR-8877) were eluted at retention times of 6 to 7 min and 10 to 11 min, respectively. The method was linear over the calibration range of 0.01 to 5 μg/mL using a linear model weighted by 1/X^2. Within-day and day-to-day coefficients of variation were less than 9% and the accuracy ranged from 94 to 103%, indicating an appropriate precision and accuracy for the analytical method. The lack of interference from endogenous compounds was verified on blank plasma from untreated dogs, establishing the specificity of the method. The validated limit of quantification was 0.01 μg/mL.
For the IV study, a non-compartmental analysis was used to determined PK parameters.

[2] = test system: kaolin-induced paw inflammation; assay: Kaolin paw inflammation model, observed antipyretic, analgesic and anti-inflammatory effects; format: in vivo, dog; conditions: oral 2 mg/kg; for Maximum effect, analgesia (paw withdrawal time to heat stimulus): 100% = control without inflammation, 2 mg/kg; for Maximum effect, body temperature: % improvement (100% = return to control); for Total duration of the effect, body temperature: time effects superior to placebo
Source text: The 12 dogs were regularly trained to get accustomed to experimental and measurements conditions for at least one month before the beginning of the experiment. Furthermore, all the investigators involved received a special training for endpoints measurements. The paw inflammation model used was the kaolin model (1.55 g of Kaolin aseptically injected in the skin under general anesthesia, [15]). The measured endpoints used to evaluate the antipyretic, analgesic and anti-inflammatory effects of the NSAID were the body temperature, the paw circumference, the time to perform a creeping test under a tunnel, the lameness score, the vertical force of the paw on force plates (normalized to the dog’s body weight), the thermal pain threshold and the plantar skin temperature. For body temperature a single measurement was obtained at each time using an electronic thermometer. Paw circumference duplicate measures per time point was done just above the pad using a measuring tape (DMC, Colmar, France). Skin plantar temperature was measured (in degrees Celsius) using an infrared thermometer (Raynger M. Raytek, Fisher Bioblock Scientific - Illkirch – France) at a reference site on the plantar face of the paw, at six different times for each day and measures were performed in triplicate. Data used was the average of the three measurements performed at each time point. Creeping time was measured (in seconds) in a tunnel 6.38 m long, using a stopwatch (digital stopwatch) in triplicate for each time point and creeping speed (m/s) was used as the final measurement for this endpoint. Lameness score was assessed using a numerical rating scale as developed by Giraudel et al.. Vertical normalized force i.e. the maximal vertical force applied on the ground by a hind limb was measured with force plates (SATEL Veto; Patrick Savet, Blagnac, France); for each measurement time, three measures were recorded, the mean values were normalized to the dog’s body weight (Fmax/b.wt., kg/kg) and used in the data analyses. Pain was assessed using a hind paw thermal escape model. The model consisted of exposing the hind limb to a light beam delivered by a Hargreaves apparatus (model 390; IITC Inc., Woodlands Hills, CA). A heat intensity corresponding to 15% of the peak heating value of 150 W was selected. The paw withdrawal time (in seconds) was measured. For each trial, three measures were recorded per measurement time, and the mean of the three measures was used in the data analysis.
The study was conducted according to a classical 2×2 crossover design. Briefly, in period one, half of the dog (3 males and 3 females), received a single oral dose of cimicoxib (approximately 2 mg/kg, one 20 mg capsules – Vetoquinol Lure france) 26.5 h after the induction of kaolin inflammation on the left paw; the other half dogs received a placebo treatment at the same time. In period 2, treatments were crossed over for each dog and inflammation was induced on the right paw. A wash-out delay of at least 5 weeks was applied between the two periods. The treatment (cimicoxib or placebo) was blinded to the investigators.
At least three days before the induction of kaolin inflammation, the PD endpoints were measured twice on the same day to generate negative control values. These endpoints were also measured at 23.5 and 25.5 h after the induction of the inflammation (i.e. before the treatment) to generate positive control values. Subsequently, the PD endpoints were measured at 2, 4, 9, 15 hours after administration (measures on all dogs) and at 22 h and 27 h after administration depending on the presence of further cimicoxib activity.
For PD analysis, a percentage of improvement was calculated for all endpoints (except for the lameness score) following Equation 2:
(2) %improvement=T^+-M/T^+-T^-*100 […]

[3] = the two groups of dogs together

- HL (plasma half-life) ([1]; Extensive metabolizers (n = 8)): 2.72 ± 0.858 h
- HL (plasma half-life) ([1]; Poor metabolizers (n = 4)): 5.63 ± 0.727 h
- AUC ([1]; Extensive metabolizers (n = 8)): 7200 ± 1810 ng·h/mL
- clearance ([1]; Extensive metabolizers (n = 8)): 5.17 mL/min/kg
- half-life ([1]; Extensive metabolizers (n = 8)): 2.7 ± 0.9 h
- Vd ([1]; Extensive metabolizers (n = 8)): 1.12 ± 0.203 L/kg
- AUC ([1]; Poor metabolizers (n = 4)): 19200 ± 3150 ng·h/mL
- clearance ([1]; Poor metabolizers (n = 4)): 1.83 mL/min/kg
- half-life ([1]; Poor metabolizers (n = 4)): 5.6 ± 1.7 h
- Vd ([1]; Poor metabolizers (n = 4)): 0.89 ± 0.133 L/kg
Compound: COc1ccc(-c2c(Cl)ncn2-c2ccc(S(N)(=O)=O)cc2)cc1F [cimicoxib]
- Duration of the maximal effect, analgesia ([2]; EM dogs): 7 h (from 2.9 to 9.8 h)
- Duration of the maximal effect, body temperature ([2]; EM dogs): 7 h (from 2.1 to 9.1 h)
- Duration of the maximal effect, creeping speed ([2]; EM dogs): 7 h (from 2.2 to 9.2 h)
- Duration of the maximal effect, paw circumference ([2]; EM dogs): 9 h (from 2.2 to 11.2 h)
- Duration of the maximal effect, skin plantar temperature ([2]; EM dogs): 7 h (from 2.3 to 9.3 h)
- Duration of the maximal effect, vertical normalized force ([2]; EM dogs): 6.9 h (from 2.6 to 9.5 h)
- Total duration of the effect, creeping speed ([2]; EM dogs): 15 h
- Total duration of the effect, paw circumference ([2]; EM dogs): 15 h
- Total duration of the effect, skin plantar temperature ([2]; EM dogs): 13 h
- Total duration of the effect, vertical normalized force ([2]; EM dogs): 16 h
- Maximum effect, analgesia (paw withdrawal time to heat stimulus) ([2]; EM dogs): 232 ± 45%
- Maximum effect, creeping speed ([2]; EM dogs, % improvement): 76 ± 9%
- Maximum effect, paw circumference ([2]; EM dogs, % improvement): 14 ± 2%
- Maximum effect, skin plantar temperature ([2]; EM dogs, % improvement): 38 ± 6%
- Maximum effect, vertical normalized force ([2]; EM dogs, % improvement): 68 ± 7%
- Maximum effect, body temperature ([2]; EM dogs): 84 ± 8%
- Total duration of the effect, body temperature ([2]; EM dogs): 13 h
- Duration of the maximal effect, analgesia ([2]; PM dogs): 8.8 h (from 2.9 to 11.8 h)
- Duration of the maximal effect, body temperature ([2]; PM dogs): 19.6 h (from 2.1 to 21.7)
- Duration of the maximal effect, clinical lameness score ([2]; PM dogs): 10.9 h (from 4.8 to 15.7 h)
- Duration of the maximal effect, creeping speed ([2]; PM dogs): 11.1 h (from 4.2 to 15.3 h)
- Duration of the maximal effect, paw circumference ([2]; PM dogs): 7 h (from 4.2 to 11.2 h)
- Duration of the maximal effect, vertical normalized force ([2]; PM dogs): 11.1 h (from 4.5 to 15.5 h)
- Maximum effect, skin plantar temperature ([2]; PM dogs): No plateau observed
- Total duration of the effect, analgesia ([2]; PM dogs): 23 h
- Total duration of the effect, creeping speed ([2]; PM dogs): 25 h
- Total duration of the effect, paw circumference ([2]; PM dogs): 20 h
- Total duration of the effect, skin plantar temperature ([2]; PM dogs): 22 h
- Total duration of the effect, vertical normalized force ([2]; PM dogs): 28 h
- Maximum effect, analgesia (paw withdrawal time to heat stimulus) ([2]; PM dogs): 152 ± 53%
- Maximum effect, creeping speed ([2]; PM dogs, % improvement): 77 ± 7%
- Maximum effect, paw circumference ([2]; PM dogs, % improvement): 15 ± 3%
- Maximum effect, vertical normalized force ([2]; PM dogs, % improvement): 67 ± 6%
- Maximum effect, body temperature ([2]; PM dogs): 87 ± 9%
- Total duration of the effect, body temperature ([2]; PM dogs): 25 h
- overall maximal effect, body temperature [2, 3]: 86%
- overall maximal effect, creeping speed [2, 3]: 76%
